{
  "source": "patent US10080789B2",
  "about": "“Programming of cells for tolerogenic therapies” (President and Fellows of Harvard College, priority 2009, dated 2018)",
  "key": {"[1]": {"tested_on": "mononuclear cells isolated from the bone marrow (BM) of C57BL/6 mice", "test": "In vitro induction of DC from bone marrow mononuclear cells, phenotype and cytokine production", "format": "cell-based", "conditions": "for CD11c+/CD86+ in total BM cells: 7 day incubation of BM cells with GM-CSF with or without the named factor; for expression of the proinflammatory cytokines IL-6 and IL-12 by induced DC: GM-CSF in presence of named factor, bacterial stimulation, vs DC induced by GM-CSF alone", "description": "FIGS. 5F (Table 1) and 5A-E reflect the potency of a material system that delivers TSLP and GM-CSF to PD lesion in induction of tolerogenic DC. […] The surface phenotypes of CD11c+DC in the BM culture were monitored by flow cytometry and the proportionality of each phenotype is expressed as a percent (%) of the total mononuclear cells (MNC) (FIG. 5F, Table 1).\nThe present invention provides for a material-based local application of GM-CSF with appropriate DC influencing factors that leads to tolerogenic DCs (tDCs), and subsequent enrichment of iTreg cells. Candidate biofactors include thymic stromal lymphopoietin (TSLP), vasoactive intestinal peptide (VIP), and transforming growth factor-beta (TGF-β). Screening is based on the induced DC's anti-inflammatory properties. […] Overall, these observations that the combination of GM-CSF with TSLP efficiently induces DC with an anti-inflammatory phenotype."}, "CD11c(+)CD86(+) DCs": {"tested_on": "CD11c(+)CD86(+) DCs", "test": "In vivo DC recruitment to subcutaneously implanted GM-CSF loaded polymers", "design": "species or system C57BL/6J mice", "conditions": "polymers loaded with 3 μg GM-CSF", "description": "(§1) Numbers in FACS plots indicate the percentage of the cell population positive for both markers. FIG. 4D is the percentage of total cells that were positive for the DC markers CD11c and CD86, in blank (-∘-) and GM-CSF (-●-) loaded polymers as a function of time post implantation. […] Scale bar—500 μm. Values in FIGS. 4A, 4D, 4E, and 4F represent mean and standard deviation (n=4 or 5); *P<0.05; **P<0.01.\n(§2) The polymer delivery vehicle presents GM-CSF in a defined spatiotemporal manner in vivo, following introduction into the tissue of interest. […]\nGels with various combinations of factors are injected into gingival of mice. […] To analyze DC recruitment, gels and surrounding tissue are excised at various time-points and the tissue digested into single cell suspensions using a collagenase solution (Worthingtion, 250 U/ml) that was agitated at 37° C. for 45 min The cell suspensions are then poured through a […] cell strainer to isolate cells from gel particles and the cells are pelleted and washed with cold PBS and counted using a Z2 coulter counter (Beckman Coulter). […] Cells are gated according to positive labels using isotype controls, and the percentage of cells staining positive for each surface antigen is recorded."}, "JAWSII DCs": {"tested_on": "JAWSII DCs", "test": "JAWSII DC recruitment, proliferation, emigration and activation in vitro (transwell)", "format": "cell-based", "procedure": "FIGS. 3A-D show data related to the concentration dependent effects of GM-CSF on DC proliferation, recruitment, activation and emigration in vitro. […] Migration counts measured at 12 hours. FIG. 3B is the effects of GM-CSF concentration on the proliferation of JAWSII DCs. 0 (white bar), 50 (grey bar), and 500 ng/ml (black bar) of GM-CSF. […] Migration counts taken at 6 hours. FIG. 3D are representative photomicrographs of TNF-α and LPS stimulated JAWSII DCs cultured in 5-50 or 500 ng/ml GM-CSF and stained for the activation markers MHCII and CCR7. Scale bar in FIG. 3D—20 μm. Values in FIGS. 3A-C represent mean and standard deviation (n=4); *P<0.05; **P<0.01\nMigration assays are performed with 6.5 mm transwell dishes (Costar, Cambridge, Mass.) with a pore size of 5 μm. The effects of GM-CSF and TSLP, (Invivogen, San Diego, Calif.) on the migration of DCs are assessed by placing recombinant murine GM-CSF and TSLP in the bottom wells and 5×10^5 DCs in the top wells. To assess the effects of GM-CSF and TSLP on DC activation, cells are cultured with bacterial stimulation (fixed Aa, fixed P. gingivalis, Aa-LPS or Pg-LPS along) with various concentrations of TSLP and GM-CSF for 24 hours and then the cells are washed and fixed in 10% formalin. The cells are prepared for fluorescence immunohistochemistry as per below, and examined using fluorescent microscopy (Olympus, Center Valley, Pa.). Cells are also analyzed by FACS, and gated according to positive stains using isotype controls, and the percentage of cells staining positive for each surface antigen will be recorded."}, "[2]": {"test": "Release profile of GM-CSF from polymer delivery vehicle", "format": "physicochemical", "conditions": "within the first 5 days; then slow sustained release over next 10 days", "description": "as §1, §2\nTo determine the efficiency of GM-CSF, TSLP, and pDNA incorporation and the kinetics of release, ^125I-labeled factors (Perkin Elmer) are utilized as a tracer, and gels and placed in Phosphate Buffer Solution (PBS) (37° C.). At various time points, the PBS release media is collected and amount of ^125I-factor released from the scaffolds is determined at each time point using a gamma counter and normalizing to the total ^125I-factor incorporated into the gels. To asses the retention of GM-CSF bioactivity, loaded gels are placed in the top wells of 6.5 mm transwell dishes (Costar, Cambridge, Mass.) with a pore size of 3 μm and the proliferation of JAWS II cells (DC cell line) cultured in the bottom wells is evaluated at various time points using cell counts from a hemacytometer. […]"}, "[3]": {"molecular_target": "T1, T cell-specific potassium channel Kv1.3 (Rattus norvegicus, UniProt P15384)", "T1 construct": "endogenous in cells", "T1 sequence (P15384 whole entry)": "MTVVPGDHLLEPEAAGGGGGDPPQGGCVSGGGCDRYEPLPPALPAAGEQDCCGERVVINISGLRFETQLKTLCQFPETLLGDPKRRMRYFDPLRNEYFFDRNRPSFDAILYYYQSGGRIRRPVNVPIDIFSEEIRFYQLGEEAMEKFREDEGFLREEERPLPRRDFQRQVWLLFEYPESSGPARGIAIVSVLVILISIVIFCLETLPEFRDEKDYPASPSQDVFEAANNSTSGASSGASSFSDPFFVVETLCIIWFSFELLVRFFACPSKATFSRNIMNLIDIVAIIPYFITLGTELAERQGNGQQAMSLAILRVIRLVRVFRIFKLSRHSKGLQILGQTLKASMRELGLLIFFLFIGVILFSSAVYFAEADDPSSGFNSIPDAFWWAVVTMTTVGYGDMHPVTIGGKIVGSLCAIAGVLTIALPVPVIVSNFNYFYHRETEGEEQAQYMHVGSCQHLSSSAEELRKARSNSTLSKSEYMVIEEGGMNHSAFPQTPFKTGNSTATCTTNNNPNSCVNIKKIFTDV", "conditions": "cited from earlier work"}},
  "note": "Where no end group is shown, it is not given here.",
  "data": [
    {"substance": "transforming growth factor-beta [TGF-b]", "values": [
      {"measurement": "CD11c+/CD86+ in total BM cells", "setting": "[1]", "value": 10.5, "unit": "%"},
      {"measurement": "expression of the proinflammatory cytokines IL-6 and IL-12 by induced DC", "setting": "[1]", "value": "diminished expression"}
    ]},
    {"substance": "granulocyte-macrophage colony stimulating factor [GM-CSF]", "values": [
      {"measurement": "total cellular infiltration at the site", "setting": "CD11c(+)CD86(+) DCs; dorsal subcutaneous, day-14, vs control", "value": "significantly enhanced"},
      {"measurement": "total cell number and percentage of infiltrating cells that were CD11c(+)CD86(+) DCs", "setting": "CD11c(+)CD86(+) DCs; subcutaneous", "value": "increased"},
      {"measurement": "CD11c+/CD86+ in total BM cells", "setting": "[1]", "value": 14.7, "unit": "%"},
      {"measurement": "DC recruitment and proliferation", "setting": "JAWSII DCs; JAWSII DCs in vitro", "value": "enhanced DC recruitment and proliferation in a dose-dependent manner"},
      {"measurement": "DC activation via TNF-α and LPS stimulation (MHCII and CCR7 expression)", "setting": "JAWSII DCs; high concentrations of GM-CSF", "value": "suppressed DC activation"},
      {"measurement": "GM-CSF concentrations that inhibited DC migration toward the LN-derived chemokine CCL19", "setting": "JAWSII DCs; transwell, 300 ng/ml CCL19, counts at 6 hours", "value": "> 100", "unit": "ng/mL"},
      {"measurement": "bioactive GM-CSF load released", "setting": "[2]", "value": "approximately 60%"}
    ]},
    {"substance": "Kaliotoxin", "values": [
      {"measurement": "RANKL production by activated rat T cells", "setting": "[3]", "value": "inhibits"}
    ]},
    {"substance": "vasoactive intestinal peptide (HSDAVFTDNYTRLRKQMAVKKYLNSILN; ends and bridges not checked; UniProt P01282 125-152, looked up) [VIP, candidate biofactor tested with GM-CSF]", "values": [
      {"measurement": "IL-10 production by induced DC", "setting": "[1]; BM cells with GM-CSF and named factor (100 ng/ml), 7 days, bacterial challenge", "value": "did not up-regulate"},
      {"measurement": "expression of the proinflammatory cytokines IL-6 and IL-12 by induced DC", "setting": "[1]", "value": "diminished expression"}
    ]},
    {"substance": "thymic stromal lymphopoietin [TSLP]", "values": [
      {"measurement": "expression of the proinflammatory cytokines IL-6 and IL-12 by induced DC", "setting": "[1]", "value": "diminished expression"}
    ]}
  ]
}
